{
  "source": "patent US20210100909A1",
  "about": "“Polymeric Methylprednisolone Conjugates and Uses Thereof” (United States Government As Represented By The Department …, priority 2019, published 2021)",
  "key": {"SOST": {"tested_on": "SOST", "assay": "SOST mRNA in bone", "format": "in vivo, rat", "settings": "p<0.05", "protocol": "(§1) Total bone RNA was extracted as previously described with some modifications. Briefly, long bones were dissected free of soft tissues, and bone marrow were flushed away with PBS using a 27 G ½ needle-syringe. The bone samples (˜1 g) were longitudinally cut into small piece and then digested 3 times with 2 mg/ml collagenase type I (Gibco, >150 Units; 20 ml), one time with 5 mM EDTA (Sigma-Aldrich, 10 ml)), and one more with the collagenase and EDTA, each for 25 min on a Shaker with rotation at 150 rpm at 370 C. Following the digestions, the bone samples were crushed using a mortar and pestle in liquid nitrogen. RNA was extracted from the lysate using the TRizol reagent (Sigma Aldrich) according to the manufacturer's instructions.\n(§2) Real time PCR was used for the determination of mRNA levels as described previously. One μg of total RNA was used to synthesize the first strand cDNA by the High Capacity cDNA Reverse Transcription Kit (Applied Biosystems). qPCR was performed with an Applied Biosystems (ABI) Via 7 thermal cycler using ABI Taqman 2×PCR mix and ABI Assay on Demand qPCR primers. Changes in expression were calculated using the 2-ΔΔCt method using 18S RNA as the internal control."}, "[1]": {"tested_on": "MAFbx/atrogin-1 and MuRF1", "assay": "MAFbx and MuRF1 mRNA in muscle", "format": "in vivo, rat", "settings": "2 days post injury", "protocol": "(§3) Total RNAs from gastrocnemius, soleus and bone were extracted using the TRI reagent (Sigma-Aldrich). For western blot analysis, gastronemius and soleus muscle tissue were lysed in RIPA buffer. Protein concentrations were determined using the BCA method. 30 μg protein lysate was used for the SDS-PAGE protein separation, and blots were probed with FOXO1 antibody.\nas §2"}, "[2]": {"assay": "Bone architecture by high-resolution μCT", "format": "in vivo, rat", "protocol": "(§4) Areal bone mineral density (BMD) measurements were performed by using a small animal dual-energy X-ray absorptiometer (DXA) (Lunar Piximus, Fitchburg, Wis., USA) as previously described. Volumetric BMD and bone architecture of the distal femur were assessed by a Scanco μCT scanner (μCT-40; Scanco Medical AG, Bassersdorf, Switzerland) at […] isotropic voxel size as previously described."}, "[3]": {"tested_on": "TRAP, calcitonin receptor (CTR) and Integrin β3", "assay": "Osteoclastic marker mRNA in bone (TRAP, CTR, Integrin β3)", "format": "in vivo, rat", "settings": "whole bone RNA", "protocol": "as §1, §2"}, "RANKL": {"tested_on": "RANKL", "assay": "RANKL mRNA and OPG/RANKL ratio in bone", "format": "in vivo, rat", "settings": "whole bone RNA", "protocol": "as §1, §2"}, "G6PC": {"tested_on": "G6PC", "assay": "G6PC gene expression in gastrocnemius muscle (qPCR)", "format": "in vivo, rat", "settings": "SCI animals", "protocol": "as §3, §2"}, "[4]": {"assay": "Fasting blood glucose level", "format": "in vivo, rat", "settings": "2 days post injury", "text": "Rats were fasted overnight in clean cages with free access to water in new clean bottles. The next morning prior to sacrifice, fasted blood glucose measurement was taken by applying tail blood to a Contour Blood Glucose Monitoring System (Bayer)."}, "FOXO1": {"tested_on": "FOXO1", "assay": "FOXO1 protein level in muscle (western blot)", "format": "in vivo, rat", "protocol": "as §3"}, "[5]": {"assay": "Areal bone mineral density by DXA", "format": "in vivo, rat", "protocol": "as §4"}, "[6]": {"assay": "Body weight and food intake after acute SCI", "format": "in vivo, rat", "protocol": "All animals were maintained on a 12:12-h light/dark cycle with lights on at 07:00 h in a temperature-controlled (20±2° C.) vivarium. Spinal cord transection surgery was performed as previously described. In brief, 9-week-old Wistar rats (Charles River) were anesthetized by inhalation of isofluorane (3-5%) and hair was removed with a clipper. Skin over the back was cleaned with betadine and isopropyl alcohol. After making a midline incision the spinal cord at the site of transection (T4) was visualized by laminectomy, and the spinal cord was transected with microscissors. The space between transected ends of the spinal cord was filled with surgical sponge and the wound was closed in two layers with suture. Urine was manually expressed 3 times daily until automaticity develops, then as needed. Baytril was administered for the first 3 to 5 days postoperatively then as needed for sign of cloudy or bloody urine or wound infection. Sham-transected animals received a laminectomy-only surgery.\nInjectable methylprednisolone (MP) solution (62.5 mg/ml) was obtained from Pfizer. MP was conjugated to the chain terminus of methoxy HPMA, an amphiphilic macromolecular prodrug to produce a polymeric methylprednisolone conjugate. […]"}, "gastrocnemius muscle": {"tested_on": "gastrocnemius muscle", "assay": "Muscle histology (H&E) of gastrocnemius, fiber cross-sectional area", "format": "in vivo, rat", "protocol": "Pieces of gastrocnemius muscle were frozen in isopentane pre-cooled on dry ice and stored at −80° C. Transverse sections (10 μm) were then cut on Leika CM3050S cryostat and mounted directly onto cooled glass slides followed by hematoxylin & eosin (H&E) staining. Stained sections were viewed in the EVOS FL Auto system (Life Technologies). Fiber size measurement and distribution was performed using the ImageJ software (NIH)."}, "[7]": {"assay": "Skeletal muscle mass after acute SCI", "format": "in vivo, rat", "protocol": "At the end of animal study, animals were euthanized by inhalation of isofluorane prior to harvesting of tissue for study. Gastrocnemius, soleus, plantaris, EDL, bicep and tricep muscle on both sides were dissected, weighed and stored at −80° C. for further analysis. The leg was removed using sterile technique; careful dissection was performed to free the head of the femur from the pelvis. To preserve bone for micro-CT study, the left leg was removed and placed into tubes containing 4% PFA overnight, after which the PFA will be replaced with 70% ethanol for storage. The right femur and tibia (n=4-5 per group) were placed in ice-cold Minimum Essential Alpha Medium (α-MEM), and then immediately processed for extraction of total RNA from bone."}, "[8]": {"settings": "intravenous; cited from earlier work"}, "TNF-α [9]": {"tested_on": "TNF-α", "assay": "TNF-α immunostaining of spinal cord (inflammation)", "format": "in vivo, rat", "settings": "7 days post injury", "protocol": "(§5) Injectable methylprednisolone (MP) solution (62.5 mg/ml) was obtained from Pfizer. MP was conjugated to the chain terminus of methoxy HPMA, an amphiphilic macromolecular prodrug. In parallel, IRDye® 800CW-MP-HPMA (MP-Nano-IRDye) and Alexa Fluor 488-labeled HPMA-MP (MP-Nano-Alexa 488) were also synthesized for optical imaging to visualize the bio-distribution of MP-Nano. Immediately after spinal cord transection, animals were administered an intravenous injection of freshly prepared MP-Nano (60 mg/kg, equivalent to 20% free MP dose at 30 mg/kg), MP (30 mg/kg) or vehicle (propylene glycol) by tail vein, followed by implantation of an Alzet pump (Durect Co, Cupertino, Calif., USA) which provided a 24-h infusion of MP at 5.4 mg/kg/hr (SCI-MP), or vehicle (propylene glycol) (SCI-veh and SCI-Nano-MP) into a subcutaneous pocket. These dosing of MP corresponds on an mg per kg basis to that prescribed by the Bracken protocol. Sham-transected animals underwent laminectomy and implantation of the same Alzet pumps, with vehicle (propylene glycol) infusion instead, as baseline controls.\n(§6) At 2 and 7 days after injury, animals (sham, SCI-veh, SCI-MP, SCI-Nano-MP, n=5 animals for each condition and time point) were perfused transcardially with 4% paraformaldehyde. […] Fluorescence intensity quantifications were performed in the ImageJ software (NIH)."}, "TNF-α [10]": {"tested_on": "TNF-α", "assay": "TNF-α mRNA in gastrocnemius and soleus muscle", "format": "in vivo, rat", "settings": "2 days post injury", "protocol": "as §3, §2"}, "nitrotyrosine": {"tested_on": "nitrotyrosine", "assay": "Nitrotyrosine immunostaining of spinal cord (oxidative stress)", "format": "in vivo, rat", "settings": "7 days post injury", "protocol": "as §5, §6"}, "GLUT4": {"tested_on": "GLUT4", "assay": "GLUT4 gene expression in gastrocnemius muscle (qPCR)", "format": "in vivo, rat", "settings": "SCI animals", "protocol": "as §3, §2"}},
  "data": [
    {"smiles": "C[C@H]1C[C@@H]2[C@H]([C@@H](O)C[C@@]3(C)[C@H]2CC[C@]3(O)C(=O)CO)[C@@]2(C)C=CC(=O)C=C12", "note": "[MP, methylprednisolone]", "values": [
      {"measurement": "levels of SOST mRNA vs. Sham", "setting": "SOST", "result": "−22", "unit": "%"},
      {"measurement": "MAFbx and MuRF1 mRNA level in gastrocnemius muscle", "setting": "[1]", "result": "more significant induction"},
      {"measurement": "MAFbx mRNA level in soleus vs. SCI-veh group", "setting": "[1]", "result": "more significant increases"},
      {"measurement": "cortical architecture of the femur midshaft", "setting": "[2]; cortical bone volume, number, thickness, separation", "result": "No significant change"},
      {"measurement": "trabecular bone architecture of the distal femur", "setting": "[2]; μCT structural parameters", "result": "more significant change in each of those structural parameters than SCI-veh group"},
      {"measurement": "osteoclastic markers TRAP, CTR and Integrin β3 mRNA vs. sham", "setting": "[3]", "result": "increase"},
      {"measurement": "decrease in the OPG/RANKL ratio vs. sham", "setting": "RANKL", "result": "about three-fold"},
      {"measurement": "mRNA level of RANKL vs. sham", "setting": "RANKL", "result": "~7", "unit": "fold"},
      {"measurement": "G6PC expression vs. sham", "setting": "G6PC", "result": "~8", "unit": "fold"},
      {"measurement": "fasting glucose level vs. sham", "setting": "[4]", "result": "+10.4%"},
      {"measurement": "FOXO1 protein level in gastrocnemius and soleus muscle vs. SCI-veh", "setting": "FOXO1", "result": "drastically elevated"},
      {"measurement": "decrease in BMD at the distal femur vs. sham", "setting": "[5]", "result": 11, "unit": "%"},
      {"measurement": "decrease of BMD at the proximal tibia vs. sham", "setting": "[5]", "result": 11.2, "unit": "%"},
      {"measurement": "body weight loss", "setting": "[6]; Day 1 and Day 2 post injury, vs control animals", "result": "significantly higher weight loss"},
      {"measurement": "food intake", "setting": "[6]; vs all other experiment groups", "result": "Pronounced decrease of food intake"},
      {"measurement": "change of fiber cross-sectional area", "setting": "gastrocnemius muscle", "result": "−40", "unit": "%"},
      {"measurement": "cross-sectional area and fiber size distribution", "setting": "gastrocnemius muscle; in words", "result": "significant left shift of fiber size"},
      {"measurement": "muscle mass gastrocnemius vs. sham", "setting": "[7]; NS", "result": "−12.5", "unit": "%"},
      {"measurement": "muscle mass biceps vs. sham", "setting": "[7]; p<0.01", "result": "−14.6", "unit": "%"},
      {"measurement": "muscle mass EDL vs. sham", "setting": "[7]; p<0.05", "result": "−10.4", "unit": "%"},
      {"measurement": "pharmacokinetic half-life", "setting": "[8]", "result": "2.5 to 3", "unit": "h"},
      {"measurement": "change of SCI-induced TNF-α expression vs. SCI-veh", "setting": "TNF-α [9]", "result": "−32.5", "unit": "%"},
      {"measurement": "mRNA level of TNF-α in gastrocnemius and soleus muscle", "setting": "TNF-α [10]", "result": "significantly increased"},
      {"measurement": "change of SCI-induced accumulation of nitrotyrosine vs. SCI-veh", "setting": "nitrotyrosine", "result": "−40.0", "unit": "%"},
      {"measurement": "change of GLUT4 expression", "setting": "GLUT4", "result": "−56.5", "unit": "%"}
    ]}
  ]
}
